Experimental data taken from ChEMBL document CHEMBL1123279, “Beta 1-selective adrenoceptor antagonists: examples of the 2-[4-[3-(substituted amino)-2-hydroxypropoxy]phenyl]imidazole class. 2” (J Med Chem, 1986).
The source made the active and inactive calls. The calls are words filed in the database; no cut-off is given here.

What was measured:
[1] = Dissociation constant (pKa); type: physicochemical
Rattus norvegicus [2] = assay: Intrinsic sympathomimetic activity (ISA) measured as max. increase in heart rate over 60 min in reserpinized normotensive anesthetized rats at 1000 ug/kg iv; type: functional; set-up: unit not given here
[3] = Partition coefficient (logD7.4); type: physicochemical; conditions: octanol/water, pH 7.4
Rattus norvegicus [4] = assay: Intrinsic sympathomimetic activity (ISA) in the reserpinized normotensive anesthetized rats following intravenous administration at 1000 ug/kg; type: functional
Rattus norvegicus [5] = assay: Intrinsic sympathomimetic activity (ISA) measured as max increase in heart rate over 60 min in the reserpinized normotensive anesthetized rats at 1000 ug/kg iv; type: functional
Rattus norvegicus [6] = assay: Effective dose was evaluated following intravenous administration in reserpinized normotensive anesthetized rats; type: functional
[7] = target: Beta-1 adrenergic receptor (Cavia porcellus, UniProt B0FL73); assay: In vitro inhibitory activity against beta-1 adrenergic receptor was measured by the inhibition of the positive chronotropic effect of isoproterenolin in isolated guinea pig atria.; conditions: read-out: pA2 (converted)
Chain of Beta-1 adrenergic receptor (B0FL73 whole entry): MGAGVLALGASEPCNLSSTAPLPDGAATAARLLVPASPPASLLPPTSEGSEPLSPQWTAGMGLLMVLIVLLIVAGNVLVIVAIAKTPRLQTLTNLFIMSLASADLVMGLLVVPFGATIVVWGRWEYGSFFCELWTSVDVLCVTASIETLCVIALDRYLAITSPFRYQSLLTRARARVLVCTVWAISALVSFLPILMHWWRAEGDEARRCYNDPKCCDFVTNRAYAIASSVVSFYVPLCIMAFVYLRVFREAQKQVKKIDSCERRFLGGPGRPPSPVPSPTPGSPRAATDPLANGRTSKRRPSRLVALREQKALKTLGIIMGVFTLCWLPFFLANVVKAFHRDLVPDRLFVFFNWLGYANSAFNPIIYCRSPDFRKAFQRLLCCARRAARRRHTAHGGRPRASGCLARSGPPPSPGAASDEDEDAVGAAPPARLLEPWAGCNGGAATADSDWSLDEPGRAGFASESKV

[8] = target: Beta-2 adrenergic receptor (Cavia porcellus) (UniProt Q8K4Z4)
Chain of Beta-2 adrenergic receptor (Cavia porcellus) (Q8K4Z4 whole entry, looked up): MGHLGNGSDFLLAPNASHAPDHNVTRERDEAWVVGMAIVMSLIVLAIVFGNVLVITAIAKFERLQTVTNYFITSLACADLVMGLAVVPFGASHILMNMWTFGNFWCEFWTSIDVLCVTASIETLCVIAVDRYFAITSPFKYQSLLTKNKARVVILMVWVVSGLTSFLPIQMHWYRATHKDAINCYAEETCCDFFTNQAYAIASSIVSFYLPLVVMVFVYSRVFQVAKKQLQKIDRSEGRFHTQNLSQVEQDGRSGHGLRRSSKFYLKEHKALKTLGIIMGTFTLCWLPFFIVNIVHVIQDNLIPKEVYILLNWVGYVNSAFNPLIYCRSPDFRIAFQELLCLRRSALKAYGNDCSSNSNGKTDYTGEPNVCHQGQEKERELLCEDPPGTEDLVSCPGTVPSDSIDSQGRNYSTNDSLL

| SMILES | pKa [1] | logD [3] | Max increase (Rattus norvegicus [2]) | also measured |
| --- | --- | --- | --- | --- |
| O=C(NCCNCC(O)COc1ccc(-c2ncc[nH]2)cc1)Nc1ccccc1 (stereo not drawn) | 5.75 | 0.778 |  |  |
| COc1ccc(CCNCC(O)COc2ccc(-c3nc(C)c(Cl)[nH]3)cc2)cc1OC (stereo not drawn) | 3.62 | 1.88 |  | Max increase (Rattus norvegicus [4]): 19 |
| COCCc1c[nH]c(-c2ccc(OCC(O)CNCCc3ccc(OC)c(OC)c3)cc2)n1 (stereo not drawn) | 5.9 | 1.32 | 75 |  |
| COc1ccc(CCNCC(O)COc2ccc(-c3nc(Br)c(C)[nH]3)cc2)cc1OC (stereo not drawn) | 5.8 | 1.98 |  | Max increase (Rattus norvegicus [4]): 23 |
| COc1ccc(CCNCC(O)COc2ccc(-c3nc(C)c[nH]3)cc2OC)cc1OC (stereo not drawn) | 6.35 | 0.968 |  |  |
| COc1ccc(CCNC[C@H](O)COc2ccc(-c3nc(C(C)(C)C)c[nH]3)cc2)cc1OC | 6.42 | 2.2 |  | Max increase (Rattus norvegicus [5]): 21 |
| COc1ccc(CCNCC(O)COc2ccc(OCc3ncc[nH]3)cc2)cc1OC (stereo not drawn) | 5.2 | 0.663 |  |  |
| COc1ccc(CCNCC(O)COc2ccc(-c3nccn3C)cc2)cc1OC.Cl.Cl (stereo not drawn) | 6.7 | 0.881 | 47 |  |
| COc1ccc(CCNCC(O)COc2ccc(Cc3nc(C)c[nH]3)cc2)cc1OC (stereo not drawn) | 7.01 | 0.301 | 0 |  |
| CC(C)NCC(O)COc1ccc(Cc2nc(Br)c[nH]2)cc1 (stereo not drawn) | 3.75 | 0.204 | 7 | Kb [7]: 3.16 nM |
| CCOC(=O)c1c[nH]c(-c2ccc(OCC(O)CNCCc3ccc(OC)c(OC)c3)cc2)n1 (stereo not drawn) | 3.8 | 1.41 | 60 |  |
| COc1ccc(CCNCC(O)COc2ccc(-c3nc(C(C)=O)c(C)[nH]3)cc2)cc1OC (stereo not drawn) | 4 | 1.28 | 24 |  |
| CC(C)NCC(O)COc1ccc(-c2nc(C(C)C)c[nH]2)cc1 (stereo not drawn) | 6.32 | 0.952 |  |  |
| COc1ccc(CCNCC(O)COc2ccc(-c3nc(C)c(C)[nH]3)cc2)cc1OC (stereo not drawn) | 6.72 | 1.02 | 19 |  |
| COCc1[nH]c(-c2ccc(OCC(O)CNCCc3ccc(OC)c(OC)c3)cc2)nc1C (stereo not drawn) | 4.92 | 0.839 |  |  |
| COc1ccc(CCNC[C@H](O)COc2ccc(Cc3nc(C(C)=O)c[nH]3)cc2)cc1OC | 3.95 | 0.301 | 0 |  |
| COc1ccc(CCNCC(O)COc2ccc(CCc3nc(Br)c[nH]3)cc2)cc1OC (stereo not drawn) | 3.65 | 1 |  |  |
| COc1ccc(CCNCC(O)COc2ccc(-c3ncco3)cc2)cc1OC (stereo not drawn) | 8.4 | 1.6 | 19 |  |
| COc1ccc(CCNCC(O)COc2ccc(COCc3ncc[nH]3)cc2)cc1OC (stereo not drawn) | 5.5 | 0.633 | 2 |  |
| N#Cc1ccccc1OCC(O)CNCCNC(=O)Nc1ccccc1.O (stereo not drawn) |  |  |  | ED50 (Rattus norvegicus [6]): 0.0029 mg/kg |
| COc1ccc(CCNCC(O)COc2ccc(-c3nc(-c4cccs4)c[nH]3)cc2)cc1OC (stereo not drawn) |  |  |  | ED50 (Rattus norvegicus [6]): 0.0479 mg/kg |
| COc1ccc(CCNCC(O)COc2ccc(-c3nc(Br)c[nH]3)cc2Cl)cc1OC (stereo not drawn) | 3.3 | 2.31 | 48 |  |
| COc1ccc(CCNCC(O)COc2ccc(-c3nccs3)cc2)cc1OC (stereo not drawn) |  | 0.505 | 70 |  |
| CC(C)NCC(O)COc1ccc(-c2ncc[nH]2)cc1 (stereo not drawn) | 5.65 | -0.569 | 53 |  |
| COc1ccc(CCNCC(O)COc2ccc(-c3nc(CN4CCOCC4)c[nH]3)cc2)cc1OC (stereo not drawn) | 3.54 | 0.215 | 30 |  |
| Cc1c[nH]c(Cc2ccc(OCC(O)CNC(C)(C)C)cc2)n1 (stereo not drawn) | 6.93 | -0.638 |  |  |
| COc1ccc(CCNCC(O)COc2ccc(-c3nc(C)c[nH]3)cc2Br)cc1OC (stereo not drawn) | 5.7 | 1.6 |  |  |
| COc1ccc(CCNC[C@H](O)COc2ccc(-c3nc(-c4cccs4)c[nH]3)cc2)cc1OC.Cl.Cl |  |  | 19 |  |

More lines, main results first:

| pKa [1] | logD [3] | SMILES | Max increase (Rattus norvegicus [2]) | also measured |
| --- | --- | --- | --- | --- |
| 5.25 | 0.312 | CCOCc1c[nH]c(-c2ccc(OCC(O)CNCCc3ccc(OC)c(OC)c3)cc2)n1 (stereo not drawn) | 27 |  |
| 4.79 | 1.41 | CCCNCC(O)COc1ccc(-c2nc(-c3cccs3)c[nH]2)cc1 (stereo not drawn) |  |  |
| 3.65 | 1.24 | COc1ccc(CCNCC(O)COc2ccc(-c3nc(Br)c[nH]3)cc2)cc1OC (stereo not drawn) |  | ED50 (Rattus norvegicus [6]): 0.0064 mg/kg |
| 4.5 | 1.78 | CCOCCNCC(O)COc1ccc(-c2nc(-c3cccs3)c[nH]2)cc1 (stereo not drawn) |  |  |
| 4.9 | 1.18 | CC(C)NCC(O)COc1ccc(-c2nc(-c3cccs3)c[nH]2)cc1 (stereo not drawn) |  |  |
| 6.2 | 2.09 | COc1ccc(CCNCC(O)COc2ccc(-c3nc(C(C)(C)C)c[nH]3)cc2)cc1OC (stereo not drawn) | 48 |  |
| 4.55 | 2.76 | COc1ccc(CCNCC(O)COc2ccc(-c3nc(-c4cccs4)c[nH]3)cc2C)cc1OC (stereo not drawn) | 21 |  |
| 6.78 | 1.79 | COc1ccc(CCNCC(O)COc2ccc(-c3nc(C(C)C)c[nH]3)cc2)cc1OC (stereo not drawn) | 24 |  |
| 5.45 | 1.53 | COc1ccc(CCNCC(O)COc2ccc(CCc3nc(-c4cccs4)c[nH]3)cc2)cc1OC (stereo not drawn) | 0 |  |
| 4.99 | 1.58 | COc1ccc(CCNCC(O)COc2ccc(Cc3nc(-c4cccs4)c[nH]3)cc2)cc1OC (stereo not drawn) | 3 |  |
| 3.48 | 1.61 | COc1ccc(CCNCC(O)COc2ccc(-c3nc(Cl)c[nH]3)cc2)cc1OC (stereo not drawn) | 42 |  |
| 3.6 | 0.279 | COc1ccc(CCNCC(O)COc2ccc(-c3nc(C(N)=O)c[nH]3)cc2)cc1OC (stereo not drawn) | 47 |  |
| 3.6 | 0.694 | COc1ccc(CCNC[C@H](O)COc2ccc(-c3nc(C(C)=O)c[nH]3)cc2)cc1OC |  | ED50 (Rattus norvegicus [6]): 0.0074 mg/kg |
| 5.64 | 0.799 | COCc1c[nH]c(-c2ccc(OCC(O)CNCCc3ccc(OC)c(OC)c3)cc2)n1 (stereo not drawn) | 38 | pA2 [8]: Active |
| 4.6 | 1.86 | CCOCCNC[C@H](O)COc1ccc(-c2nc(-c3cccs3)c[nH]2)cc1 |  | ED50 (Rattus norvegicus [6]): 0.0784 mg/kg |
| 3.6 | 0.699 | CCCCNC(=O)NCCNCC(O)COc1ccc(-c2nc(C)c[nH]2)cc1 (stereo not drawn) |  |  |
| 3.8 | 1.9 | OC(CNCCc1ccncc1)COc1ccc(-c2nc(-c3cccs3)c[nH]2)cc1 (stereo not drawn) |  | ED50 (Rattus norvegicus [6]): 0.0654 mg/kg |
| 5.55 | 0 | COc1ccc(CCNCC(O)COc2ccc(-c3nc(CO)c[nH]3)cc2)cc1OC (stereo not drawn) |  |  |
| 4.02 | 2.34 | COc1ccc(CCNCC(O)COc2ccc(-c3nc(-c4cccs4)c[nH]3)cc2Cl)cc1OC (stereo not drawn) | 19 |  |
